Measured values from US20260060957A1, “COMPOUNDS AND COMPOSITIONS USEFUL FOR TREATMENT OF PROLIFERATIVE DISEASE OR DISORDER” (University of Houston System, priority 2023, published 2026).

Tests used:
Type in all cases: cell-based, human
[1] = tested on: cleaved caspase 3 (c-Casp3); assay: Western blot of stem cells exposed to IAP antagonists and ponatinib (cleaved caspase 3); settings: BE stem cells exposed to IAP antagonist and ponatinib; six-hour exposure; FIG. 42c
Excerpt: Based on the properties of diverse IAP antagonists in combination with ponatinib towards BE stem cells, synthetic chemistry was employed to expand the repertoire of IAP antagonists available for these studies. A squaramide linker strategy was chosen for generating bivalent IAP antagonists based on its planar structure and separation of the headgroups that contain the peptide […] domains that interact with cIAP1, cIAP2, and XIAPs, and screened them in dose-response assays against BE stem cells in the presence and absence of ponatinib (FIG. 42d).

BE stem cells = assay: Survival of Barrett's esophagus (BE) stem cells, high-throughput screen and dose-response
Excerpt: The present example describes methods used for testing the efficacy of compounds described herein. The selective growth of stem cells of cancers, of their precursor lesions, and of normal and chronically diseased epithelial tissues is described in the references below. In brief, biopsied tissues are reduced to single cell suspensions and plated onto lawns of irradiated 3T3-J2 feeder cells in specialized StemEcho media and libraries of colonies are evident in 7-10 days. Single cell-derived clones are generated by single cell FACS sorting to 384 well plates and wells with individual colonies are expanded, analyzed by molecular genetics, and grown as discrete clones.
After 2-5 days, the cells are fixed using paraformaldehyde and the human cells are labelled with human-specific antibodies followed by fluorochrome-labelled secondary antibodies. Human cell numbers are quantified via high-throughput imaging technology (CellInsight CX7 LED, Thermo), and data analyzed by Excel.
To learn more about the relative efficacy of these IAP antagonists in a synthetic lethal combination with ponatinib, we compared their effects in dose-response assays in vitro against BE stem cells. […]

[2] = tested on: RIPK1 S320/S166 phosphorylation, cIAP1, cIAP2, cleaved Caspase 3 in LGD stem cells; assay: Western blot of LGD stem cells (RIPK1 phosphorylation, cIAP1/cIAP2, cleaved Caspase 3); settings: ponatinib 300 nM, 7532N 10 nM, 16 hr per FIG. 42j

How did the “Induction of cleaved caspase 3 (c-Casp3), western blot” value [1] turn out when `CN[C@@H](C)C(=O)N[C@H](C(=O)N1CCC[C@H]1C(=O)N[C@H]1c2ccccc2C[C@H]1OCC#CC#CCO[C@@H]1Cc2ccccc2[C@@H]1NC(=O)[C@@H]1CCCN1C(=O)[C@@H](NC(=O)[C@H](C)NC)C1CCCCC1)C1CCCCC1` [AZD5582] was run?
The value was “induced a cleaved caspase 3”.

Which “Induction of cleaved caspase 3 (c-Casp3), western blot” value [1] does the source give for `CN[C@@H](C)C(=O)N[C@H]1CCCC[C@H]2CC[C@@H](C(=O)N[C@@H](c3ccccc3)c3cn(CCCCc4ccc(CCCCn5cc([C@@H](NC(=O)[C@@H]6CC[C@@H]7CCCC[C@H](NC(=O)[C@H](C)NC)C(=O)N76)c6ccccc6)nn5)cc4)nn3)N2C1=O` [SM-164] here?
Its value is “induced a cleaved caspase 3”.

`Cc1ccc(C(=O)Nc2ccc(CN3CCN(C)CC3)c(C(F)(F)F)c2)cc1C#Cc1cnc2cccnn12` [ponatinib] was tested. Which “Inhibition of BE stem cells” value (BE stem cells; eight patient-derived BE stem cells, FIG. 40d) did it give?
The value was 20%.

`Cc1cn(-c2cc(NC(=O)c3ccc(C)c(Nc4nccc(-c5cccnc5)n4)c3)cc(C(F)(F)F)c2)cn1` [nilotinib] was tested. Which “Identification in high-throughput screens” value (BE stem cells; screens against BE and ESO stem cells) did it give?
Its value is “not identified in our screens”.

With `CN[C@@H](C)C(=O)N[C@H](C(=O)N1CCC[C@H]1C(=O)N[C@H]1c2ccccc2C[C@H]1OCCOCCNc1c(NCCOCCO[C@@H]2Cc3ccccc3[C@@H]2NC(=O)[C@@H]2CCCN2C(=O)[C@@H](NC(=O)[C@H](C)NC)C2CCCCC2)c(=O)c1=O)C1CCCCC1` [Compound I-1] as the molecule, how does the “RIPK1 phosphorylation, cIAP1/cIAP2 and apoptosis in LGD stem cells, western blot” value [2] read?
The value was “degradation of cIAP1 and cIAP2 without inducing cleaved Caspase 3”.
